Results reported in patent US10562863B2, “Heterobifunctional linker” (THE GOVERNORS OF THE UNIVERSITY OF ALBERTA, priority 2016, dated 2020).

Target: T1, branched-chain amino acid-binding protein LivF (Escherichia coli, UniProt P0AD96)
T1 construct: inferred from the pET15b vector and Ni-NTA purification; made in house; host or cells: E. coli BL21
Experiment: Competitive lateral flow assay, LivF test band
Set-up: species or system E. coli
Details: free Leu 0.5 and 2 mg/ml; 1M urea; citrate 2 mg/ml
Excerpt: We generated a useful metabolite sensor using a combination of a lateral flow assay (LFA), a metabolite-L1-AuNP conjugate (Leucine) and metabolite-specific protein. […] In our assay, the branched-chain amino acid-binding protein LivF35 was loaded onto nitrocellulose strips as the detection protein (“Test band”) and as the “Control band” the glutamate/aspartate binding protein Gltl36 was used, since the gold nanoparticles are stabilized with glutamate on their surface and that can be detected by Gltl as flow control. Leucine-decorated gold nanoparticles were loaded at the end of the strip in solution, with or without competing free leucine and the flow assay was performed.
To prepare the LFA strips, lug of each protein (from a 0.5 ug/ul solution in 50 mM phosphate buffer, pH 7.5) was loaded onto FF80 nitrocellulose strips as a 0.5 cm line. 20 ul of a suspension of metabolite-coated AuNPs (3 mg/mL) was loaded onto the end of the membrane strips and allowed to flow through via capillary action. Bands showing the captured gold nanoparticles were documented with an electronic flatbed scanner (Canon Canoscan 5600).

T1 sequence (P0AD96 24-367): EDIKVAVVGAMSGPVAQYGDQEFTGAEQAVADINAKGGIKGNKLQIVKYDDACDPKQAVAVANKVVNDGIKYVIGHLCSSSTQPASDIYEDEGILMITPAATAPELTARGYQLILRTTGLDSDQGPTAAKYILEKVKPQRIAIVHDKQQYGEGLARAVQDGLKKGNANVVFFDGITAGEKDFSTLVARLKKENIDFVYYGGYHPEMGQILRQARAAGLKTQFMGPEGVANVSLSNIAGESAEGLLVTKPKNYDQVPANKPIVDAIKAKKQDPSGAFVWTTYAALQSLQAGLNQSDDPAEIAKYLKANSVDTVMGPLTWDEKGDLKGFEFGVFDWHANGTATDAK

How did the “Effect of free metabolite on LivF detection of leucine-coated AuNP” value (shortened to “Effect of free metabolite”) turn out when `O=C(O)CC(O)(CC(=O)O)C(=O)O` [citrate] was run?
The value was “not hampered”.

Which “Effect of free metabolite” value does the source give for `CC(C)C[C@H](N)C(=O)O` [free leucine, leucine] here?
The value was “abrogated”.

Which “Effect of free metabolite” value does the source give for `NC(N)=O` [urea] here?
Its value is “not hampered”.
